The compounds below were run against T1, Phosphatidylcholine-sterol acyltransferase (Homo sapiens, UniProt P04180) (assay: Enzyme Assay). Conditions: pH 7.5; 4 °C.
T1 sequence (P04180 whole entry): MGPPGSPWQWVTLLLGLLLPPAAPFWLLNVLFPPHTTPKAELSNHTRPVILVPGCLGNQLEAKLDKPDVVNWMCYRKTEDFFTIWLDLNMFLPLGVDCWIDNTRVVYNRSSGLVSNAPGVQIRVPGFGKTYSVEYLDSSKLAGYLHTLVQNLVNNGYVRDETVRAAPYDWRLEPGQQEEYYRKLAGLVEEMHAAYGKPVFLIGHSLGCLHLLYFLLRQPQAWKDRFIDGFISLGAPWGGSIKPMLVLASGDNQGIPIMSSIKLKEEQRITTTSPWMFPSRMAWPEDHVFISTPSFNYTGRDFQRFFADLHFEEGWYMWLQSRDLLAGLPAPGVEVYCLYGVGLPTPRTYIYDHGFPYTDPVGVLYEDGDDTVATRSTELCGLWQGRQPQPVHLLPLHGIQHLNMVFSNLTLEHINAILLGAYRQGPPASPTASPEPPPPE
Procedure: The phospholipase A2 activity of LCAT was assayed using lecithin and apoA-I containing [9,10-3H] dipalmitoylphosphatidylcholine (DPPC) and measurement of the radioactive fatty acid released from the sn-2-position.

Row | IC50 [nM] | SMILES
1 | > 500 | CCCCCCCC(=O)C(F)(F)CCOP(=O)([O-])OCC[N+](C)(C)C [Difluoroketone phospholipid analogue, 1]
2 | 28 | CCCCCCCCCCCCCCCCC(=O)C(F)(F)C(COCCCCCCCC)COP(=O)([O-])OCC[N+](C)(C)C (centres undefined) [Difluoroketone phospholipid analogue, 3]
3 | 60 | CCCCCCCC(=O)OCC(COP(=O)([O-])OCC[N+](C)(C)C)CC(=O)C(F)(F)CCCCCC (centres undefined) [Difluoroketone phospholipid analogue, 4]
4 | 60 | CCCCCCCCOCC(COP(=O)([O-])OCC[N+](C)(C)C)C(F)(F)C(=O)CCCCCCC (centres undefined) [Difluoroketone phospholipid analogue, 2]

Source: BindingDB's records for doi:10.7270/Q2M0441T (Dalhousie University, 1989)
